# PubChem BioAssay AID1996
# Conditions: buffer; pH 7.4; 200.0 µM
row,SMILES,solubility kinetic [µg/mL]
1,O=C(NCC1CCCO1)c1cnn2c(C(F)F)cc(C3CC3)nc12 (stereo not given),> 50.5
2,NC(=O)C1CCN(C(=O)Cc2ccsc2)CC1,> 37.8
3,O=S(=O)(Nc1ccc2c(c1)OCCO2)c1cccc(F)c1,> 46.4
4,Cc1cccnc1NC(N)=S,> 25.1
5,Cc1cc(C)n2nc(SCC(=O)N3CCC(C(=O)O)CC3)nc2n1,> 52.4
6,Cc1cc(NC(=O)CSc2nc(C)c(C)c(=O)[nH]2)no1,> 44.1
7,CC(C)c1c(O)nc(SCC(=O)N2CCCCC2)[nH]c1=O,> 46.7
8,CC(C)N(C1=CC(=O)OC12CCCCC2)C(C)C,> 37.7
9,Cc1noc(C)c1COC(=O)COc1ccc(C#N)cc1,> 42.9
10,CCCCCc1ccc(S(=O)(=O)Nc2cc(C)ccn2)cc1,< 0.3
11,O=C(COc1ccc(Oc2ccccc2)cc1)NC1CCS(=O)(=O)C1 (stereo not given),> 54.2
12,S=C1NCN(C2CCCCC2)CN1CCc1ccccc1,16.1
13,Cc1c(N)cccc1-n1cccc1,20
14,O=C(c1cc(F)c(F)c(F)c1F)N1CCN(C(=O)C2CCCO2)CC1 (stereo not given),> 54
15,CC(C)NC(=O)N1CCN(c2ccncc2S(=O)(=O)N2CCCCC2)CC1,> 59.3
16,CC(C)N(Cc1ccccc1)C(=O)COC(=O)c1cc(S(=O)(=O)N(C)C)ccc1N1CCCC1,7.5
17,O=C(O)C1C2C=CC(O2)C1C(=O)NCCc1cccc(Cl)c1 (stereo not given),> 48.3
18,O=C(NCC1CC1(Cl)Cl)Nc1ccc(Cl)c(Cl)c1 (stereo not given),9.1
19,CCOC(=O)C(=O)N/N=C(/c1ccccc1)c1ccc(OC)cc1,> 49
20,CC(C)C(NC(=O)C(C)N1C(=O)c2ccccc2C1=O)c1ccccc1 (stereo not given),> 52.6

row,SMILES,solubility kinetic [µg/mL]
1,C=CCNc1nnc(Sc2ncccc2[N+](=O)[O-])s1,> 44.3
2,CCS(=O)(=O)N1CCC(C(=O)O)CC1,> 33.2
3,O=C(O)CSc1c2c(nc3cc(C(=O)N4CCCC4)ccc13)CCCC2,48.6
4,Cn1c(=O)c(Sc2ccccc2)c(O)c2ccccc21,> 42.5
5,COc1cccc(C2Nc3ccccc3NC3=C2C(=O)CC(C)(C)C3)c1 (stereo not given),40.2
6,Cc1cccc(C)c1NC(=O)CCCCCC1NC(=O)NC1C (stereo not given),> 47.6
7,COc1ccc(N2C(=O)CSC2c2ccccc2F)c(OC)c1 (stereo not given),45.9
8,CC(C)CC(=O)NC(c1ccccc1)c1c(O)ccc2ccccc12 (stereo not given),< 0.7
9,COc1ccc(NC(=S)NCc2cccnc2)cc1OC,> 45.5
10,Cc1cc(C)nc(SCc2cn3c(C)cc(C)nc3n2)n1,> 44.9
11,COc1ccccc1CNC(=O)COC(=O)/C=C/c1ccc2c(c1)OCO2,5.4
12,Fc1ccccc1-n1cc(-c2ccccc2)[nH]c1=S,6.2
13,CCCCNc1ncnc2sc3c(c12)CCN(CCC)C3,44.9
14,Nc1cc(Nc2ccccc2)ccn1.O=P(O)(O)O,> 42.5
15,COc1ccc(-n2c(C)cc(/C=C3\SC(=O)NC3=O)c2C)cc1,3.9
16,Cc1cccc(-c2noc(CNC(=O)c3ccco3)n2)c1,42.5
17,COc1ccccc1-c1nc(C#N)c(NCCCn2ccnc2)o1,> 48.5
18,C=CCNC1=C(Cl)C(=O)N(Cc2ccccc2)C1=O,5.8
19,OCC1(Cc2ccccc2)CCCN(C2CCCC2)C1 (stereo not given),34.1
20,O=Cc1cccc(OC(=O)Nc2ccccc2)c1,29.2

# Results, then the compound that gave them:
row,solubility kinetic [µg/mL],SMILES
1,48.6,COc1cccc(OC)c1OCCOCCN1CCN(C)CC1
2,> 36.5,Cc1ccccc1C(=O)NCCCn1ccnc1
3,3.7,Cc1ccccc1OCCCC(=O)NC1CCCCC1
4,2.9,O=C(NCCc1ccc(F)cc1)c1coc(=O)c(Br)c1
5,43.2,CN1CCN(C(=S)NC(CC(=O)c2ccccc2)c2ccccc2)CC1 (stereo not given)
6,> 51.4,CCC(CC)C(=O)N1CCN(Cc2nc3ccccc3c(=O)[nH]2)CC1
7,41.2,O=C(c1ccccc1)C1CCN(C(=O)Nc2ccccc2)CC1
8,> 51.5,CC(Oc1ccccc1)C(=O)OCC(=O)Nc1ccc2c(c1)OCO2 (stereo not given)
9,> 41.6,COc1ccccc1C(=O)OCC(=O)NC1CCCC1
10,44.4,CC(=O)OC1OCCOC1NC(=S)Nc1ccc(C)cc1 (stereo not given)
11,> 53.3,CC1(C)CC(=O)C(CC(=O)N2CCC(Cc3ccccc3)CC2)C(=O)C1
12,5.2,CC(=O)Nc1ccc(/C=C(\C#N)S(=O)(=O)c2ccc(C)cc2)cc1
13,> 66.5,CCN(C(=O)CN1CCC(C(=O)OC)CC1)c1c(N)n(Cc2ccccc2)c(=O)[nH]c1=O
14,> 47.6,O=C(CCNC(=O)c1ccc([N+](=O)[O-])cc1)NCc1ccco1
15,28,Cn1c(=O)c2c(ncn2CC(=O)OCCCC(=O)c2ccc(Br)cc2)n(C)c1=O
16,21.9,N#Cc1ccc(C(=O)NC(=S)NC2CCCCC2)cc1
17,> 47.6,O=C(O)c1cccc(S(=O)(=O)Nc2ccc3c(c2)CCC3)c1
18,1.3,COc1cccc(NC(=O)COc2ccc3c(c2)CCC3)c1
19,> 53.4,O=C(CCN1CCN(CCO)CC1)Nc1ccc(Br)cc1
20,> 35.3,CNC(=O)CO/N=C/c1ccc(N(C)C)cc1
